The nature of data set [1]: Human liver microsomal stability of compound in microsomal protein, PBS buffer pH 7.4, NADPH, glucose-6-phosphate and glucose-6-phosphate dehydrogenase media. Aliquotes were taken at 5 time points and after stopping the reaction, supernatants were analyzed using HPLC coupled with a tandem mass spectrometer. The elimination constant, half-life, and intrinsic clearance are determined as results using linear regression analysis. As to conditions: for half-life / microsomal CLint: liver microsomes. It counts as ADME, microsomes, Microsome. (In general: Microsomes from liver hold many membrane-bound enzymes, among them those of drug oxidation.)

A short description of data set [2]: Mouse liver microsomal stability of compound in microsomal protein, PBS buffer pH 7.4, NADPH, glucose-6-phosphate and glucose-6-phosphate dehydrogenase media. Aliquotes were taken at 5 time points and after stopping the reaction, supernatants were analyzed using HPLC coupled with a tandem mass spectrometer. The elimination constant, half-life, and intrinsic clearance are determined as results using linear regression analysis. It counts as ADME, microsomes, Microsome. As to conditions: for half-life / microsomal CLint: liver microsomes; for Remaining / Remaining (without cofactor): microsomes.

Where only a bound is given, the exact number is not on record here.
Throughout, for Remaining (without cofactor): time not given here.
Throughout, for Remaining: time not given here.

Consider `Clc1ccc2[nH]cc(Cc3ccc(-c4nn[nH]n4)cc3)c2c1`, for which, in data set [1], the half-life (as a rule, the time in which the quantity being followed falls by half) was over 2.89 h and the microsomal CLint – broadly, a measure of how fast metabolising enzymes remove a compound, apart from limits set by blood flow – is under 10 µL/min/mg. In addition, in data set [1] (microsomes), the Remaining came out at 98.893% and the “Remaining (without cofactor)” value turned out to be 98.069%.
For the molecule `CC(C)NC(=O)[C@H](Nc1ccc2c(c1)CNC2)c1cc(Cl)cc2[nH]ncc12`, in data set [1], the half-life is over 2.89 h and the microsomal CLint is under 10 µL/min/mg. In data set [1] (microsomes), the Remaining turned out to be 91.546% and the “Remaining (without cofactor)” value is 107.23%.
Consider `O=C(Nc1ccc2c(c1)CNC2)c1cc(Cl)cc2c1CCC2`, for which, in data set [1], the half-life was over 2.89 h and the intrinsic clearance (microsomal CLint) is under 10 µL/min/mg. Further, in data set [1] (microsomes), the Remaining amounted to 85.255% and the “Remaining (without cofactor)” value is listed as 101.935%.
`C=CC[C@H](Nc1ccc(-c2nn[nH]n2)cc1)c1cc(Cl)cc(NC(=O)OCc2ccccc2)c1`: in data set [1], the half-life amounted to 2.77 h and the microsomal CLint stood at 10.1 µL/min/mg. In data set [1] (microsomes), the Remaining was 84.591% and the “Remaining (without cofactor)” value is 100.465%.
For `O=C(Nc1cc(Cl)cc([C@H]2CN(Cc3ccccc3)C[C@@H]2c2cccc(-c3nn[nH]n3)c2)c1)OCc1ccccc1`, in that order: 0.601 h, 46.3 µL/min/mg, 46.707% and 96.205%.
In data set [1], `Cn1ncc2c(C(=O)Nc3ccc4c(c3)CNC4)cc(Br)cc21` showed a half-life of over 2.89 h and a microsomal CLint of under 10 µL/min/mg. Further, in data set [1] (microsomes), the Remaining came to 83.745% and the “Remaining (without cofactor)” value turned out to be 108.267%.
For `Cc1c(C(=O)Nc2cc([C@H]3CCOC3)ccn2)cc(C2CC2)n1C`, in that order: 0.482 h, 57.7 µL/min/mg, 39.342% and 94.838%.
On to `CNC(=O)[C@H](Nc1ccc(-c2nnn[nH]2)cc1)c1cc(Cl)cc(C2CC2)c1`, for which, in data set [1], the half-life was over 2.89 h and the microsomal CLint is under 10 µL/min/mg. Also, in data set [1] (microsomes), the Remaining was 90.289% and the “Remaining (without cofactor)” value is reported as 100.18%.
In data set [1], `O=C(Nc1cc(Cl)cc([C@H](Nc2cccc(-c3nn[nH]n3)c2)C(=O)NCc2ccccc2)c1)OCc1ccccc1` showed a half-life of over 2.89 h and a microsomal CLint of under 10 µL/min/mg. In data set [1] (microsomes), the Remaining came out at 93.548% and the “Remaining (without cofactor)” value is 99.519%.
In data set [1], `O=C(/C=C/c1ccccc1)C(=O)N1CCN(CCc2ccccc2)CC1` yielded a half-life of 0.167 h and a microsomal CLint of 167 µL/min/mg. In data set [1] (microsomes), the Remaining is 6% and the “Remaining (without cofactor)” value was determined as 98%. Also, in data set [2], the half-life was 0.153 h, the microsomal CLint was 181 µL/min/mg, the Remaining worked out at 5% and the “Remaining (without cofactor)” value is 96%.
In data set [1], `N#C[C@H](Nc1cccc(-c2nn[nH]n2)c1)c1cc(Cl)cc(NC(=O)OCc2ccccc2)c1` had a half-life of 2.04 h and an intrinsic metabolic clearance (microsomal CLint) of 13.6 µL/min/mg. Besides, in data set [1] (microsomes), the Remaining amounted to 82.243% and the “Remaining (without cofactor)” value is 110.789%.
For `N#C[C@H](Nc1ccc2c(c1)CNC2)c1cc(Cl)cc2[nH]ncc12`, in that order: 2.71 h, 10.3 µL/min/mg, 84.178% and 84.336%.
In the same order, the values of `O=C(N[C@H]1[C@H]2CCCCC[C@H]2[C@H]1C(=O)Nc1cccc(C2CCNCC2)c1)OCc1ccccc1` are 0.89 h, 31.3 µL/min/mg, 58.639% and 103.638%.
Consider `NCc1cccc(NC(=O)[C@@H](NC(=O)OCc2ccccc2)c2ccc(OCc3ccccc3)cc2)c1`, for which, in data set [1], the half-life turned out to be 2.48 h and the microsomal CLint was 11 µL/min/mg. Moreover, in data set [1] (microsomes), the Remaining worked out at 87% and the “Remaining (without cofactor)” value worked out at 100%. Further, in data set [2], the half-life is 30 h, the microsomal CLint came to 1 µL/min/mg, the Remaining came to 103% and the “Remaining (without cofactor)” value worked out at 106%.
In the case of `O=C(O)COc1cccc(NC(=O)c2cc(Cl)cc(NC(=O)OCc3ccccc3)c2)c1`, in data set [1], the half-life is over 2.89 h and the microsomal CLint was under 10 µL/min/mg. Besides, in data set [1] (microsomes), the Remaining stood at 98.934% and the “Remaining (without cofactor)” value is reported as 109.497%.
Consider `Cc1c(C(=O)Nc2cc(-c3cccnc3)ccn2)cc(C2CC2)n1C`, for which, in data set [2], the half-life came out at 0.0717 h, the microsomal CLint is 388 µL/min/mg, the Remaining is given as 0.854% and the “Remaining (without cofactor)” value came out at 95.554%.
In data set [1], `COc1cc(Cc2c(-c3ccc(F)cc3)noc2C)nc(N2CCNCC2)n1` registered a half-life of 1.8 h and a microsomal CLint of 15 µL/min/mg. In data set [1] (microsomes), the Remaining is listed as 82% and the “Remaining (without cofactor)” value was determined as 110%. For the same molecule, in data set [2], the half-life is 0.695 h, the microsomal CLint was 33 µL/min/mg, the Remaining was 52% and the “Remaining (without cofactor)” value came out at 101%.
As to `CNC(=O)[C@H](Nc1cccc(-c2nn[nH]n2)c1)c1cc(Cl)cc2[nH]ncc12`, in data set [1], the half-life is over 2.89 h and the microsomal CLint is under 10 µL/min/mg. Also, in data set [1] (microsomes), the Remaining amounted to 97.01% and the “Remaining (without cofactor)” value is on record as 105.868%.
For `O=C(Nc1cc(Cl)cc(-c2ccc3[nH]c(C(=O)O)cc3c2)c1)OCc1ccccc1`, in that order: over 2.89 h, under 10 µL/min/mg, 92.268% and 98.779%.
In data set [1], `O=C(O)Cn1ncc2cc(-c3cc(Cl)cc(NC(=O)OCc4ccccc4)c3)ccc21` gave a half-life of over 2.89 h and a microsomal CLint of under 10 µL/min/mg. Further, in data set [1] (microsomes), the Remaining is given as 101.103% and the “Remaining (without cofactor)” value worked out at 100.106%.
For `NCc1cc(C(=O)O)cc([C@@H]2C[C@H]2c2cc(Cl)cc(NC(=O)OCc3ccccc3)c2)c1`, in that order: over 2.89 h, under 10 µL/min/mg, 89.704% and 102.436%.
In data set [1], `C=CC[C@H]1NCc2cc(NC(=O)c3cc(F)cc4[nH]ncc34)ccc21` had a half-life of over 2.89 h and a microsomal CLint of under 10 µL/min/mg. Also, in data set [1] (microsomes), the Remaining is listed as 97.296% and the “Remaining (without cofactor)” value is 93.037%.
In data set [1], `CNC(=O)c1cc(Cl)ccc1NS(=O)(=O)c1ccc(Oc2ccccc2Cl)cc1` displayed a half-life of 0.263 h and a microsomal CLint of 106 µL/min/mg. Moreover, in data set [1] (microsomes), the Remaining turned out to be 18% and the “Remaining (without cofactor)” value was 94%. In data set [2], the half-life was 0.247 h, the intrinsic clearance (microsomal CLint) came to 94 µL/min/mg, the Remaining is recorded as 16% and the “Remaining (without cofactor)” value came to 99%.
In data set [1], `CNC(=O)[C@H](Nc1cc(CN)cc(C(=O)O)c1)c1cc(Cl)cc(C2CC2)c1` came in with a half-life of over 2.89 h and a microsomal CLint of under 10 µL/min/mg. In data set [1] (microsomes), the Remaining was found to be 98.4% and the “Remaining (without cofactor)” value was 103.999%.
In the same order, the values of `CNC(=O)[C@H](Nc1cc(Cl)cc(NC(=O)OCc2ccccc2)c1)c1cccc(-c2nn[nH]n2)c1` are 1.31 h, 21.3 µL/min/mg, 70.065% and 102.307%.
`OCC#C[C@H](Nc1ccc2c(c1)CNC2)c1cc(Cl)cc2[nH]ncc12`: in data set [1], the half-life is over 2.89 h and the microsomal CLint is under 10 µL/min/mg. In data set [1] (microsomes), the Remaining stood at 89.541% and the “Remaining (without cofactor)” value is 103.012%.
With `C=CC[C@H](Nc1cccc(-c2nn[nH]n2)c1)c1cc(Cl)cc(NC(=O)OCc2ccccc2)c1`, in data set [1], the half-life was found to be 0.425 h and the microsomal CLint came out at 65.5 µL/min/mg. Also, in data set [1] (microsomes), the Remaining was found to be 34.146% and the “Remaining (without cofactor)” value is reported as 93.066%.
`O=C1Cc2cc(C(=O)Nc3ccc4c(c3)CNC4)ccc2N1`: in data set [2], the half-life is over 2.89 h, the microsomal CLint was under 10 µL/min/mg, the Remaining turned out to be 102.985% and the “Remaining (without cofactor)” value was found to be 100.305%.
For `N#C[C@H](Nc1cccc(C(=O)O)c1)c1cc(Cl)cc2[nH]ncc12`, in data set [1], the half-life is 2.33 h and the microsomal CLint was determined as 12 µL/min/mg. In data set [1] (microsomes), the Remaining amounted to 81.554% and the “Remaining (without cofactor)” value worked out at 89.628%.
Turning to `Cc1ccc(NC(=O)c2cc(Cl)cc(NC(=O)OCc3ccccc3)c2)cc1CN`, in data set [1], the half-life is over 2.89 h and the microsomal CLint was under 10 µL/min/mg. In data set [1] (microsomes), the Remaining stood at 88.403% and the “Remaining (without cofactor)” value amounted to 97.11%.
Take `NCc1cc(Cl)cc(C(=O)Nc2ccc3c(c2)CNC3)c1`: in data set [1] (microsomes), the Remaining was 0%, the “Remaining (without cofactor)” value is listed as 109.308% and the T1/2 result is reported as “Half-life could not be determined”.
Consider `O=C(O)c1cc(Cl)ccc1NS(=O)(=O)c1ccc(Oc2ccccc2Cl)cc1`, for which, in data set [1], the half-life was determined as 0.18 h and the microsomal CLint came out at 155 µL/min/mg. Besides, in data set [1] (microsomes), the Remaining is recorded as 8.181% and the “Remaining (without cofactor)” value came to 110.535%. Also, in data set [2], the half-life turned out to be 1.82 h, the microsomal CLint came out at 13 µL/min/mg, the Remaining was found to be 79.49% and the “Remaining (without cofactor)” value is listed as 100.358%.
In data set [1], `CNC(=O)[C@H](Nc1cc(CN)cc(-c2nn[nH]n2)c1)c1cc(Cl)cc(C2CC2)c1` yielded a half-life of over 2.89 h and a microsomal CLint of under 10 µL/min/mg. In data set [1] (microsomes), the Remaining amounted to 95.463% and the “Remaining (without cofactor)” value was found to be 101.856%.
